Data: patent publication US12171763B2, “Methods and compositions comprising a KRASG12C inhibitor and a PD-L1 binding antagonist for treating lung cancer” (Genentech, Inc., priority 2020, dated 2024)
Counter-ions that a name gives are not always drawn.

Key:
[1] = tested on: KRAS^G12C-positive lung tumors; experiment: Nonclinical xenograft models of KRAS G12C-positive lung tumors; assay type: in vivo
[2] = Risks associated with administration of Compound 1; conditions: in vivo
[3] = tested on: KRAS^G12C-positive cancer cell lines; experiment: Mechanism of action studies in KRAS G12C-positive cancer cell lines; assay type: cell-based
[4] = tested on: KRAS^G12C-positive over KRAS^G12C-negative cancer cell lines; experiment: Growth inhibition of KRAS G12C-positive versus KRAS G12C-negative cancer cell lines; assay type: cell-based
[5] = tested on: CT26.KRAS12C-Clone #12:B2G9 Syngeneic Colorectal (CRC) Tumors; experiment: Anti-tumor efficacy in CT26.KRAS12C-Clone #12:B2G9 syngeneic colorectal (CRC) tumor model; assay type: in vivo, Balb/c mice
Description: The combination of the adipate salt of Compound 1 with anti-PD-L1 monoclonal antibody (mAb) was assessed in the CRISPR-engineered CT26.KRAS12C-Clone #12:B2G9 mouse colorectal (CRC) syngeneic tumor model.
Test Agents. The adipate salt of Compound 1 was in a solution at a concentration of 7.5 mg/mL in 0.5% (w/v) methylcellulose. Anti-PD-L1 mAbs (Mu IgG1 anti-PD-L1 (6E11); hereafter referred to as anti-PD-L1) was in a solution in Histidine Buffer #8 ([…] Histidine Acetate, […] Sucrose, 0.02% Tween 20™, pH 5.5). The oral-dosed vehicle control was 0.5% (w/v) methylcellulose. Test agents were stored in a refrigerator set to maintain a temperature range of 4° C.-7° C. All treatments and vehicle control dosing solutions were prepared once a week for three weeks.
Female Balb/c mice that were 9-10 weeks old were obtained from Charles River Laboratory (Hollister, CA) weighing an average of 22 g. Only animals that appeared to be healthy and that were free of obvious abnormalities were used for the study. Mus musculus colon carcinoma CT26 cells were obtained from the American Type Culture Collection (Rockville, MD). CT26.KRAS12C-Clone #12:B2G9 is derived from CRISPR knock-in of G12C in CT26 cells. Cells were cultured in vitro, harvested in log-phase growth, and resuspended in Hank's Balanced Salt Solution (HBSS) containing Matrigel (BD Biosciences; San Jose, CA) at a 1:1 ratio. The cells were then implanted subcutaneously in the right lateral thorax of 70 Balb/c mice. Each mouse was injected with 0.1×10^6 cells in a volume of 100 μL. Tumors were monitored until they reached a mean tumor volume of 159-228 mm^3. Mice were distributed into six groups based on tumor volumes with n=8 mice per group. The mean tumor volume across all six groups was 198 mm^3 at the initiation of dosing.
[…] The MC vehicle and adipate salt of Compound 1 were administered on QD orally (PO) by gavage for 21 days in a volume of 100 μL. The isotope control mAbs and anti-PD-L1 mAbs were administered intravenously (IV) at 10 mg/kg for the first dose, and then dosed intraperitoneally (IP) at 5 mg/kg for subsequent doses on a twice weekly (BIW) schedule.
Tumor sizes and mouse body weights were recorded twice weekly over the course of the study. […]
Dose Preparation and Tumor and Body Weight Measurement. All concentrations were calculated based on a mean body weight of 25 g for the […] mouse strain used in this study. Tumor volumes were measured in two dimensions (length and width) using Ultra Cal-IV calipers (model 54-10-111; Fred V. Fowler Co.; Newton, MA) and analyzed using Excel, version 14.2.5 (Microsoft Corporation; Redmond WA). The tumor volume was calculated with the following formula: Tumor size(mm^3)=(longer measurement×shorter measurement^2)×0.5 […]

[6] = tested on: NSCLC; conditions: patients in clinical studies, cited from earlier work

C=CC(=O)N1CCN(c2nc(OC[C@@H]3CCCN3C)nc3c(F)c(-c4nc(N)cc(C)c4C(F)(F)F)c(Cl)cc23)[C@@H](C)C1 (atropisomer, axis not shown) [Compound 1, 1-((S)-4-((R)-7-(6-amino-4-methyl-3-(trifluoromethyl)pyridin-2-yl)-6-chloro-8-fluoro-2-(((S)-1-methylpyrrolidin-2-yl)methoxy)quinazolin-4-yl)-3-methylpiperazin-1-yl)prop-2-en-1-one]
single-agent activity on tumor growth [1]: inhibits tumor growth | risks associated with administration [2]: diarrhea, nausea, vomiting, oral mucosal irritation, minimal to mild transaminase elevation, and phototoxicity | apoptosis induction [3]: apoptosis induction is observed | downstream MAPK pathway components (pERK, pS6) and KRAS target genes (DUSP6, SPRY4) [3]: inhibited | selectivity in growth inhibition [4]: over 20,000 fold

C=CC(=O)N1CCN(c2nc(OC[C@@H]3CCCN3C)nc3c(F)c(-c4nc(N)cc(C)c4C(F)(F)F)c(Cl)cc23)[C@@H](C)C1 (atropisomer, axis not shown) [adipate salt Compound 1, 1-((S)-4-((R)-7-(6-amino-4-methyl-3-(trifluoromethyl)pyridin-2-yl)-6-chloro-8-fluoro-2-(((S)-1-methylpyrrolidin-2-yl)methoxy)quinazolin-4-yl)-3-methylpiperazin-1-yl)prop-2-en-1-one]
partial responses (PRs) ([5]; fraction of mice, Compound 1 adipate 30 mg/kg PO QD, anti-PD-L1 10/5 mg/kg BIW): ⅜ | CR (complete response) ([5]; number of mice of 8, CR = 100% decrease in tumor volume, Compound 1 adipate 30 mg/kg, anti-PD-L1 10/5 mg/kg): 0 | PR (partial response) ([5]; number of mice of 8, PR = >50% decrease from initial tumor volume, Compound 1 adipate 30 mg/kg, anti-PD-L1 10/5 mg/kg): 3 | % TGI (estimated) ([5]; tumor growth inhibition based on AUC, relative to vehicle, Compound 1 adipate 30 mg/kg PO QD, anti-PD-L1 10 mg/kg IV first dose then 5 mg/kg IP BIW): 123%

C=CC(=O)N1CCN(c2nc(=O)n(-c3c(C)ccnc3C(C)C)c3nc(-c4c(O)cccc4F)c(F)cc23)[C@@H](C)C1 [AMG 510, sotorasib]
treatment-related adverse events ([6]; overall): 56.6 % of patients | Grade 3 events occurring in more than one patient [6]: ALT increase, diarrhea, anemia, AST increase, and alkaline phosphatase increase | treatment-related Grade 3 or 4 event [6]: 11.6 % of patients | treatment-related serious adverse event [6]: 1.6 % of patients
